Assay results taken from US20170168041A1, “Polymers And Oligomers With Aggregation-Induced Emission Characteristics For Imaging And Image-Guided Therapy” (National University of Singapore, priority 2014, published 2017).
Values belong to the molecule of their own block, whether it stands above or below them.

Columns and labels:
[1] = system: U87-MG cells; experiment: MTT anti-proliferative assay; assay type: cell-based; details: not affected by light irradiation
Description: (§1) Subsequently, the anti-proliferative properties of TPECB-Pt-D5-cRGD towards MDA-MB-231 cells, U87-MG cells, MCF-7 cells and 293T cells were evaluated by MTT assays. The MDA-MB-231 cells are cisplatin resistant while U87-MG cells are cisplatin-sensitive. […] It should be noted that the cytotoxicity of cisplatin to both cells was not affected by the light irradiation.

[2] = in water; cited from earlier work
[3] = ROS generation of AIE residue of prodrug, ABDA absorbance; assay type: physicochemical; details: 12 min light irradiation, 0.25 W cm-2
Text: The ROS generation of the AIE residue was studied by measuring the absorption spectra of the mixture of TPECB-Pt-D5-cRGD and 9,10-anthracenediyl-bis(methylene)dimalonic acid (ABDA) in DMSO/PBS (v/v=1/199) upon light irradiation. It should be noted that the absorbance of TPECB-Pt-D5-cRGD is low and will not disturb the absorbance change of ABDA. As depicted in FIG. 23D, the absorption peaks at 358 nm, 378 nm and 400 nm attributed to the anthracene moiety in ABDA decreased gradually upon light irradiation. This is due to the fact that ABDA can efficiently trap ROS by fast reaction with the anthracene moiety.

[4] = system: 293T cells; experiment: MTT anti-proliferative assay; assay type: cell-based; details: in dark or with light irradiation
Description: as §1

[5] = system: MCF-7 cells; experiment: MTT anti-proliferative assay; assay type: cell-based; details: in dark or with light irradiation
Description: as §1

[6] = system: MDA-MB-231 cells; experiment: Combination index (C.I.) analysis from dose-effect profiles; assay type: cell-based; details: drug effect levels from 75% to 25%
Description: To confirm the drug synergy in cRGD-TPE-Pt-DOX, the combination index (C.I.) was calculated. The C.I. derived from the dose-effect profiles was plotted against drug effect level, which provided quantitative information of the combination drug effect, where C.I. values lower than, equal to, or higher than 1 denote synergism, additivity, or antagonism, respectively.
The combination therapy of cisplatin and DOX towards MDA-MB-231 cells was evaluated by the combination index (C.I.) analysis. The C.I. was calculated as follows: C.I.=D1/Df1+D2/Df2+D1D2/Df1Df2. Where. Df1 is the dose of Drug-1 required to produce x percent effect alone and D1 is the dose of Drug-1 required to produce the same x percent effect in combination with Drug-2; similarly, Df2 is the dose of Drug-2 required to produce x percent effect alone and D2 is the dose of Drug-2 required to produce the same x percent effect in combination with Drug-1. Theoretically, C.I. is the ratio of the combination dose to the sum of the single-drug doses at an isoeffective level. Consequently, C.I. values <1 indicate synergism, values >1 show antagonism, and values=1 indicate additive effects.

[7] = system: MDA-MB-231, MCF-7 and 293T cells; experiment: Annexin V-FITC/PI apoptosis staining; assay type: cell-based; details: 6 h incubation; only MDA-MB-231 strong apoptotic fluorescence, MCF-7 and 293T negligible
Description: The toxicity of cRGD-TPE-Pt-DOX to different cells was also studied using MDA-MB-231, MCF-7 and 293T cells as examples. After incubation with cRGD-TPE-Pt-DOX for 6 h, the cells were stained with Annexin V-FITC/Propidium Iodide (PI), which are commonly used fluorescent probes to distinguish viable cells from apoptosis ones. […] This should be due to the integrin mediated endocytosis, which leads to selective cellular uptake of the prodrug cRGD-TPE-Pt-DOX.

[8] = 1O2 quantum yield measurement with ABDA, Rose Bengal standard; assay type: physicochemical; details: for 1O2 quantum yield: in water, white light, relative to Rose Bengal; for degradation rate of ABDA: white light irradiation, ABDA absorbance at 378 nm
Description: The ^1O2-sensitive indicator, 9,10-anthracenediyl-bis(methylene) dimalonic acid (ABDA), was used as the ^1O2-trapping agent, and Rose Bengal (RB) was used as the standard photosensitizer. In these experiments, 10 μL of ABDA solution ([…]) was added to 1 mL of sample solution, and white light (400-800 nm) with a power density of 0.25 W cm^−2 was employed as the irradiation source. The absorbance of ABDA at 378 nm was recorded at different irradiation time to obtain the decay rate of the photosensitizing process. The ^1O2 quantum yield of the PS in water (ΦPS) was calculated using the following formula: […]
Where KPS and KRB are the decomposition rate constants of ABDA by the PSs and RB, respectively. APS and ARB represent the light absorbed by the PSs and RB, respectively, which are determined by integration of the optical absorption bands in the wavelength range 400-800 nm. ΦRB is the ^1O2 quantum yield of RB, and ΦRB=0.75 in water.
To assess capabilities of PPDC, TPPDC, and TPDC in ^1O2 generation, a commercial ^1O2 probe ABDA was used as an indicator and Rose Bengal (RB) was used as the standard photosensitizer (^1O2 quantum yield ORB=0.75 in water). In the presence of PSs or RB under irradiation with white light, the absorbance of the ABDA solution at 378 nm, decreases with prolonged irradiation time, indicating the degradation of ABDA by ^1O2 generated by PSs. […] Thus, the ^1O2 quantum yield of PPDC, TPPDC and TPDC was calculated to be 0.89, 0.32 and 0.28, respectively. These findings agree well with the prediction based on eq. (1).

Structure (SMILES): N.N.[Cl][Pt][Cl] [cisplatin]
- IC50 [1]: 5.4 µM

Structure (SMILES): O=C([O-])c1c(Cl)c(Cl)c(Cl)c(Cl)c1-c1c2cc(I)c(=O)c(I)c-2oc2c(I)c([O-])c(I)cc12.[Na+].[Na+] [Rose Bengal]
- 1O2 quantum yield of standard [2]: 0.75

Structure (SMILES): COc1ccc(C(=C(c2ccccc2)c2ccc(C(/C=C/c3ccc(OCCCNC(=O)CCC(=O)[O][Pt-2]([NH3+])([NH3+])([Cl])([Cl])[O]C(=O)CCC(=O)N[C@@H](CC(=O)O)C(=O)N[C@@H](CC(=O)O)C(=O)N[C@@H](CC(=O)O)C(=O)N[C@@H](CC(=O)O)C(=O)N[C@@H](CC(=O)O)C(=O)NCCCC[C@@H]4NC(=O)[C@@H](Cc5ccccc5)NC(=O)[C@H](CC(=O)O)NC(=O)CNC(=O)[C@H](CCCNC(=N)N)NC4=O)cc3)=C(C#N)C#N)cc2)c2ccc(OC)cc2)cc1 [TPECB-Pt-D5-cRGD]
- ABDA absorption at 400 nm, % of original value [3]: 24.1%
- cytotoxicity [4]: minimum cytotoxicity
- cytotoxicity [5]: minimum cytotoxicity

Structure (SMILES): COc1cccc2c1C(=O)c1c(O)c3c(c(O)c1C2=O)C(OC1CC(NC(=O)CCC(=O)[O][Pt]([NH2])([NH2])([Cl])([Cl])[O]C(=O)CCC(=O)NCc2cn(Cc4ccc(/C(=C(\c5ccccc5)c5ccc(Cn6cc(C[C@@H]7NC(=O)[C@@H](Cc8ccccc8)NC(=O)[C@H](CC(=O)O)NC(=O)CNC(=O)[C@H](CCCNC(=N)N)NC7=O)nn6)cc5)c5ccccc5)cc4)nn2)C(O)C(C)O1)CC(O)(C(=O)CO)C3 (stereo partly shown) [cRGD-TPE-Pt-DOX]
- combination index (C.I.) result [6]: synergistic effect
- selective apoptosis [7]: selectively kill integrin overexpressed cancer cells

- degradation rate of ABDA [8]: 0.0013
Structure (SMILES): COc1ccc(C(=C(c2ccccc2)c2ccc(C(C)=C(C#N)C#N)cc2)c2ccc(OC)cc2)cc1 [TPDC]
- 1O2 quantum yield [8]: 0.28

- degradation rate of ABDA [8]: 0.0032
Structure (SMILES): COc1ccc(C(=C(c2ccccc2)c2ccc(-c3ccc(C(C)=C(C#N)C#N)cc3)cc2)c2ccc(OC)cc2)cc1 [PPDC]
- 1O2 quantum yield [8]: 0.89

- degradation rate of ABDA [8]: 0.0018
Structure (SMILES): COc1ccc(C(=C(c2ccccc2)c2ccc(C(=C(C#N)C#N)c3ccccc3)cc2)c2ccc(OC)cc2)cc1 [TPPDC]
- 1O2 quantum yield [8]: 0.32
